Data reported in patent US7982053B2, “Peptide deformylase inhibitors” (GlaxoSmithKline LLC, priority 2005, dated 2011).

test system: Mycobacterium tuberculosis H37Rv; experiment: Mycobacterium tuberculosis Susceptibility Assay (Resazurin); assay type: cell-based; settings: 7H9+ADC medium, 37° C., read-out: MIC (minimal inhibitory concentration)

Structure (SMILES)	MIC
N#Cc1cccc(C(=O)NC(=O)[C@@H]2CCCN2C(=O)[C@H](CC2CCCC2)CN(O)C=O)c1 [Example 14, N-[(3-cyanophenyl)carbonyl]-1-((2R)-3-cyclopentyl-2-{[formyl(hydroxy)amino]methyl}propanoyl)-L-prolinamide]	≤ 32 µg/mL
O=CN(O)C[C@@H](CC1CCCC1)C(=O)N1CCC[C@H]1C(=O)NC(=O)c1cc(F)ccc1F [Example 15, 1-((2R)-3-cyclopentyl-2-{[formyl(hydroxy)amino]methyl}propanoyl)-N-[(2,5-difluorophenyl)carbonyl]-L-prolinamide]	≤ 32 µg/mL
COCC(=O)NC(=O)[C@@H]1CCCN1C(=O)[C@H](CC1CCCC1)CN(O)C=O [Example 5, 1-((2R)-3-cyclopentyl-2-{[formyl(hydroxy)amino]methyl}propanoyl)-N-[(methyloxy)acetyl]-L-prolinamide]	≤ 32 µg/mL
Cc1ccc(C(=O)NC(=O)[C@@H]2CCCN2C(=O)[C@H](CC2CCCC2)CN(O)C=O)cc1F [Example 12]	≤ 32 µg/mL
O=CN(O)C[C@@H](CC1CCCC1)C(=O)N1CCC[C@H]1C(=O)NC(=O)c1ccc(F)cc1 [Example 1, 1-((2R)-3-cyclopentyl-2-{[formyl(hydroxy)amino]methyl}propanoyl)-N-[(4-fluorophenyl)carbonyl]-L-prolinamide]	≤ 32 µg/mL
Cc1cc(C(=O)NC(=O)[C@@H]2CCCN2C(=O)[C@H](CC2CCCC2)CN(O)C=O)no1 [Example 9, 1-((2R)-3-cyclopentyl-2-{[formyl(hydroxy)amino]methyl}propanoyl)-N-[(5-methyl-3-isoxazolyl)carbonyl]-L-prolinamide]	≤ 32 µg/mL
O=CN(O)C[C@@H](CC1CCCC1)C(=O)N1CCC[C@H]1C(=O)NC(=O)c1ccc(C(F)(F)F)nc1 [Example 6, N-[1-((2R)-3-cyclopentyl-2-{[formyl(hydroxy)amino]methyl}propanoyl)-L-prolyl]-6-(trifluoromethyl)-3-pyridinecarboxamide]	≤ 32 µg/mL
O=CN(O)C[C@@H](CC1CCCC1)C(=O)N1CCC[C@H]1C(=O)NC(=O)c1ccccc1F [Example 10, 1-((2R)-3-cyclopentyl-2-{[formyl(hydroxy)amino]methyl}propanoyl)-N-[(2-fluorophenyl)carbonyl]-L-prolinamide]	≤ 32 µg/mL
N[C@H]1CC[C@H](OC(=O)NC(=O)[C@@H]2CCCN2C(=O)[C@H](CC2CCCC2)CN(O)C=O)CC1 [Example 19, N-{[(trans-4-aminocyclohexyl)oxy]carbonyl}-1-((2R)-3-cyclopentyl-2-{[formyl(hydroxy)amino]methyl}propanoyl)-L-prolinamide]	≤ 32 µg/mL
Cc1cc(C(=O)NC(=O)[C@@H]2CCCN2C(=O)[C@H](CC2CCCC2)CN(O)C=O)n(C)n1 [Example 8, 1-((2R)-3-cyclopentyl-2-{[formyl(hydroxy)amino]methyl}propanoyl)-N-[(1,3-dimethyl-1H-pyrazol-5-yl)carbonyl]-L-prolinamide]	≤ 32 µg/mL
O=CN(O)C[C@@H](CC1CCCC1)C(=O)N1CCC[C@H]1C(=O)NC(=O)c1c(F)cccc1F [Example 18, 1-((2R)-3-cyclopentyl-2-{[formyl(hydroxy)amino]methyl}propanoyl)-N-[(2,6-difluorophenyl)carbonyl]-L-prolinamide]	≤ 32 µg/mL
O=CN(O)C[C@@H](CC1CCCC1)C(=O)N1CCC[C@H]1C(=O)NC(=O)c1ccccc1 [Example 3, 1-((2R)-3-cyclopentyl-2-{[formyl(hydroxy)amino]methyl}propanoyl)-N-(phenylcarbonyl)-L-prolinamide]	≤ 32 µg/mL
CC(=O)NC(=O)[C@@H]1CCCN1C(=O)[C@H](CC1CCCC1)CN(O)C=O [Example 2, N-acetyl-1-((2R)-3-cyclopentyl-2-{[formyl(hydroxy)amino]methyl}propanoyl)-L-prolinamide]	≤ 32 µg/mL
Cc1cc(C(=O)NC(=O)[C@@H]2CCCN2C(=O)[C@H](CC2CCCC2)CN(O)C=O)nn1C [Example 7, 1-((2R)-3-cyclopentyl-2-{[formyl(hydroxy)amino]methyl}propanoyl)-N-[(1,5-dimethyl-1H-pyrazol-3-yl)carbonyl]-L-prolinamide]	≤ 32 µg/mL
O=CN(O)C[C@@H](CC1CCCC1)C(=O)N1CCC[C@H]1C(=O)NC(=O)c1ccc(N2CCOCC2)nc1 [Example 20, N-[1-((2R)-3-cyclopentyl-2-{[formyl(hydroxy)amino]methyl}propanoyl)-L-prolyl]-6-(4-morpholinyl)-3-pyridinecarboxamide]	≤ 32 µg/mL
O=CN(O)C[C@@H](CC1CCCC1)C(=O)N1CCC[C@H]1C(=O)NC(=O)c1ccncc1 [Example 17, N-[1-((2R)-3-cyclopentyl-2-{[formyl(hydroxy)amino]methyl}propanoyl)-L-prolyl]-4-pyridinecarboxamide]	≤ 32 µg/mL
O=CN(O)C[C@@H](CC1CCCC1)C(=O)N1CCC[C@H]1C(=O)NC(=O)c1cccc(F)c1 [Example 11, 1-((2R)-3-cyclopentyl-2-{[formyl(hydroxy)amino]methyl}propanoyl)-N-[(3-fluorophenyl)carbonyl]-L-prolinamide]	≤ 32 µg/mL
